Laboratory results published in ChEMBL document CHEMBL5550128, “Discovery and preclinical evaluations of TQB3616, a novel CDK4-biased inhibitor” (Bioorg Med Chem Lett, 2024).
pIC50: −log10 of the molar value.

Legend:
MDA-MB-436 [1] = experiment: Induction of cell cycle arrest at S phase in Rb-deficient human MDA-MB-436 cells at 0.16 uM (reference value: 22.47 %); assay type: functional
MCF7 [2] = experiment: Induction of cell cycle arrest at S phase in Rb-proficient human MCF7 cells at 0.16 uM (reference value: 19.19 %); assay type: functional
[3] = AUC (0 to last) in Beagle dog at 2 mg/kg, po; assay type: ADME, organism-based, Canis lupus familiaris; details: in vivo
MIA PaCa-2 = experiment: Inhibition of cell proliferation in human MIA PaCa-2 cells at 0.3 uM incubated for 72 hrs by Cell Titer Glo assay relative to control; assay type: functional
MDA-MB-436 [4] = experiment: Induction of cell cycle arrest at G1 phase in Rb-deficient human MDA-MB-436 cells at 0.16 uM (reference value: 47.32 %); assay type: functional
Cytochrome P450 2C9 = Cytochrome P450 2C9 (Homo sapiens, UniProt P11712); experiment: Inhibition of CYP2C9 (unknown origin) using […] as substrate; assay type: ADME
[5] = Antitumor activity against human PDX ES-06-0130 cells xenografted in mouse at 40 mg/kg, po qd for 3 weeks relative to control; assay type: functional; details: PDX ES-06-0130, 504 h, read-out: TGI
MV4-11 = experiment: Inhibition of cell proliferation in human MV4-11 cells at 0.3 uM incubated for 72 hrs by Cell Titer Glo assay relative to control; assay type: functional
SW-620 = experiment: Inhibition of cell proliferation in human SW620 cells at 0.3 uM incubated for 72 hrs by Cell Titer Glo assay relative to control; assay type: functional
[6] = molecular target: Voltage-gated inwardly rectifying potassium channel KCNH2 (Homo sapiens, UniProt Q12809); experiment: Inhibition of hERG; assay type: toxicity
[7] = Plasma protein in rat assessed as unbound fraction; assay type: ADME, cell-free
[8] = Toxicity in mouse xenografted with human PDX ES-06-0130 cells assessed as body weight change at 40 mg/kg, po qd for 3 weeks relative to control; assay type: organism-based; details: in vivo, 504 h
[9] = Plasma protein in human assessed as unbound fraction; assay type: ADME, cell-free
Cytochrome P450 1A2 = Cytochrome P450 1A2 (Homo sapiens, UniProt P05177); experiment: Inhibition of CYP1A2 (unknown origin) using […] as substrate; assay type: ADME
MCF7 [10] = experiment: Induction of cell cycle arrest at G1 phase in Rb-proficient human MCF7 cells at 0.16 uM (reference value: 55.9 %); assay type: functional
MDA-MB-436 [11] = experiment: Induction of cell cycle arrest at G2 phase in Rb-deficient human MDA-MB-436 cells at 0.16 uM (reference value: 28.59 %); assay type: functional
MCF7 [12] = experiment: Antitumor activity against human MCF7 cells xenografted in mouse at 5 mg/kg, po qd for 3 weeks relative to control; assay type: functional; details: MCF7, 504 h, read-out: TGI
[13] = AUC (0 to last) in Sprague-Dawley rat at 6 mg/kg, po; assay type: ADME, organism-based; details: in vivo
[14] = Volume of distribution at steady state in Beagle dog at 0.6 mg/kg, iv; assay type: ADME, organism-based, Canis lupus familiaris; details: in vivo, read-out: Vdss
CAL-27 = experiment: Inhibition of cell proliferation in human CAL-27 cells at 0.3 uM incubated for 72 hrs by Cell Titer Glo assay relative to control; assay type: functional
[15] = Oral bioavailability in CD-1 mouse at 2 mg/kg; assay type: ADME, organism-based; details: in vivo
MCF7 [16] = experiment: Antiproliferative activity against Rb-proficient human MCF7 cells assessed as inhibition of cellular viability; assay type: functional, cell-based
KG-1 = experiment: Inhibition of cell proliferation in human KG-1 cells at 0.3 uM incubated for 72 hrs by Cell Titer Glo assay relative to control; assay type: functional
T47D = experiment: Inhibition of cell proliferation in human T47D cells at 0.3 uM incubated for 72 hrs by Cell Titer Glo assay relative to control; assay type: functional
NCI-H520 = experiment: Inhibition of cell proliferation in human NCI-H520 cells at 0.3 uM incubated for 72 hrs by Cell Titer Glo assay relative to control; assay type: functional
[17] = Plasma protein in mouse assessed as unbound fraction; assay type: ADME, cell-free
[18] = Toxicity in mouse xenografted with human MCF7 cells assessed as drug tolerance at 5 to 15 mg/kg, po for 3 weeks; assay type: organism-based; details: in vivo, 504 h, dose 5-15 mg/kg
[19] = Half life in Sprague-Dawley rat at 1 mg/kg, iv; assay type: ADME, organism-based; details: in vivo
[20] = molecular target: T1, Retinoblastoma-associated protein (Homo sapiens) (UniProt P06400); experiment: Inhibition of Rb phosphorylation in human MCF7 cells incubated for 24 to 48 hrs by In-cell western assay; assay type: cell-based; details: dose 100-500 nM, time 24-48 hrs
T1 sequence (whole entry): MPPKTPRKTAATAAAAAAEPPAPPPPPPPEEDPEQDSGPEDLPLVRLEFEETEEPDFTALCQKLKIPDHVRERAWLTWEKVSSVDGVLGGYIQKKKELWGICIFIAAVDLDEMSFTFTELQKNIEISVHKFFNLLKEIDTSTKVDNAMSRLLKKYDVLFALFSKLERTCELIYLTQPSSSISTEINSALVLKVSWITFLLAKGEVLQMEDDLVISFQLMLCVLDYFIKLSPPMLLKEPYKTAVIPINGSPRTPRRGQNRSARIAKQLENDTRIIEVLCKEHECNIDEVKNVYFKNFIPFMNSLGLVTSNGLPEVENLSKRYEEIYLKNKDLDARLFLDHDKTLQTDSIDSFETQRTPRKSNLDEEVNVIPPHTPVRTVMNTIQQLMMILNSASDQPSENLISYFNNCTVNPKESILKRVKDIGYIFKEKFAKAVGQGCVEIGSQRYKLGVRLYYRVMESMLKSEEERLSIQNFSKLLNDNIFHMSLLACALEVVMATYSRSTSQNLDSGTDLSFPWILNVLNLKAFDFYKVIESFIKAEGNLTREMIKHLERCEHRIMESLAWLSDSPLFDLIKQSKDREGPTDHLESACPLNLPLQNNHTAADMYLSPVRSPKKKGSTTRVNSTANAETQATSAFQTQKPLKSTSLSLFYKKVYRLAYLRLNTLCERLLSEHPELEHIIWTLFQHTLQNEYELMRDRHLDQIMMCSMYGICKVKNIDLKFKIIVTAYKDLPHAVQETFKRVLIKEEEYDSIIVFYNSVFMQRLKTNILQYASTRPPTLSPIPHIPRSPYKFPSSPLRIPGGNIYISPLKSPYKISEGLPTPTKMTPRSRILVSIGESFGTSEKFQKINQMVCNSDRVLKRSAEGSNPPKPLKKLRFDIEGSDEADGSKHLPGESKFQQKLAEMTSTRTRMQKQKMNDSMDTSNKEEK

Cytochrome P450 2C19 = Cytochrome P450 2C19 (Homo sapiens, UniProt P33261); experiment: Inhibition of CYP2C19 (unknown origin) using […] as substrate; assay type: ADME
[21] = Volume of distribution at steady state in Sprague-Dawley rat at 1 mg/kg, iv; assay type: ADME, organism-based; details: in vivo, read-out: Vdss
[22] = Aqueous solubility of compound at pH <=4.5; assay type: physicochemical
[23] = Half life in CD-1 mouse at 0.5 mg/kg, iv; assay type: ADME, organism-based; details: in vivo

Cytochrome P450 2C19, sequence (P33261 whole entry): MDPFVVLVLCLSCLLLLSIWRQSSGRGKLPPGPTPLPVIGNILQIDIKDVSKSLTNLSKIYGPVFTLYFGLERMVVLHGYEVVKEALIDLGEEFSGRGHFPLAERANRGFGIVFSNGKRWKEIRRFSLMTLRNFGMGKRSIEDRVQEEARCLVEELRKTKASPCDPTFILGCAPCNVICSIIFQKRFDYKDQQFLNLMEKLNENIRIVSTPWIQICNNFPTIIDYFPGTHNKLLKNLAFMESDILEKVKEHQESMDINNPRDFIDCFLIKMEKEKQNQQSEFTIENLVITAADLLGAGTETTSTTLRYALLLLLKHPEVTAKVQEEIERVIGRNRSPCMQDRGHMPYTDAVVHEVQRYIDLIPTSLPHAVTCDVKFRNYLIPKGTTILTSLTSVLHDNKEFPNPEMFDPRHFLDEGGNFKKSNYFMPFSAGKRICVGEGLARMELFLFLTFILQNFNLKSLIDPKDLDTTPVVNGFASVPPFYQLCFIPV
Cytochrome P450 1A2, sequence (P05177 whole entry): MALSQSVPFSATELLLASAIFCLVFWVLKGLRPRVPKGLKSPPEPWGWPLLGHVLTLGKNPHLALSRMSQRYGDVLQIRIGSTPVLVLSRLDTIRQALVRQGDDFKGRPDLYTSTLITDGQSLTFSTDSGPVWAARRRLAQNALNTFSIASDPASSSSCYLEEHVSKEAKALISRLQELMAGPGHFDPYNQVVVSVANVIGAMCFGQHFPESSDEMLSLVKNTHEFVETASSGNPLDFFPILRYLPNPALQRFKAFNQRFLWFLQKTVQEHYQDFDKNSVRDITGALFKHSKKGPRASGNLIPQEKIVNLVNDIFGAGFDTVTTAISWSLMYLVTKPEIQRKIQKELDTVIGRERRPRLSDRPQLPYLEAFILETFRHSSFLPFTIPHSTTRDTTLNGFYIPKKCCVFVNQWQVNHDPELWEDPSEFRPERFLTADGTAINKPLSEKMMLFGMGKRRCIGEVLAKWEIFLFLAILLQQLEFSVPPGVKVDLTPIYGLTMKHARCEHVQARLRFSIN
Voltage-gated inwardly rectifying potassium channel KCNH2, sequence (Q12809 whole entry): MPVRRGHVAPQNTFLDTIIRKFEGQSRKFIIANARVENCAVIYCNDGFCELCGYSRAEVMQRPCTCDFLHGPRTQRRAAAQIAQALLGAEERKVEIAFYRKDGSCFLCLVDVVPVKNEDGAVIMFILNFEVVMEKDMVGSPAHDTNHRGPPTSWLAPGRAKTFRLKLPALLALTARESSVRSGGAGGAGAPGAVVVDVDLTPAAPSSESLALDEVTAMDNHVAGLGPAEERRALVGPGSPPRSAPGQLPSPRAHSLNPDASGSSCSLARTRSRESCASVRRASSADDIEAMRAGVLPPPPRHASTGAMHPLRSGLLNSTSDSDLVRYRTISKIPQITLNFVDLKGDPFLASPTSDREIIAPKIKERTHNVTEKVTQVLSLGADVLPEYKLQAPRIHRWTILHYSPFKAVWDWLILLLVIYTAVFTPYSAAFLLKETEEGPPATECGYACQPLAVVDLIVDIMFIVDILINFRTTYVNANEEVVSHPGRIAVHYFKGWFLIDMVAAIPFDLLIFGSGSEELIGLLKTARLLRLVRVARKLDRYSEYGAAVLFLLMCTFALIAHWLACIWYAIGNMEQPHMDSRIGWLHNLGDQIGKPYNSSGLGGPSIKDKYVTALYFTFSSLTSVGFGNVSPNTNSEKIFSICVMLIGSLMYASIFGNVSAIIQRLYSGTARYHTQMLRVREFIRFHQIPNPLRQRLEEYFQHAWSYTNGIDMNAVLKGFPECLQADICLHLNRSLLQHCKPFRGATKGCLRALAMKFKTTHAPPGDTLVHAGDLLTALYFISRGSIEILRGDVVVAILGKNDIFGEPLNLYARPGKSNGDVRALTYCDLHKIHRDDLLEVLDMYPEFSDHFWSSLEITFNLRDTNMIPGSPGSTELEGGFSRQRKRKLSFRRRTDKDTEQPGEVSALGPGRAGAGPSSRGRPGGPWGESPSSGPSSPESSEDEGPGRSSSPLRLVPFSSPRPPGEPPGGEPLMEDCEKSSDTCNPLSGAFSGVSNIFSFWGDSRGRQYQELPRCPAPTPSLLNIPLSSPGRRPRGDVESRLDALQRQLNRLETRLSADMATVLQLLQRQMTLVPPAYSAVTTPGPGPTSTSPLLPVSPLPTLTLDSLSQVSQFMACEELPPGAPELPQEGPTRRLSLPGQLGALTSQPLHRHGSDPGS
Cytochrome P450 2C9, sequence (P11712 whole entry): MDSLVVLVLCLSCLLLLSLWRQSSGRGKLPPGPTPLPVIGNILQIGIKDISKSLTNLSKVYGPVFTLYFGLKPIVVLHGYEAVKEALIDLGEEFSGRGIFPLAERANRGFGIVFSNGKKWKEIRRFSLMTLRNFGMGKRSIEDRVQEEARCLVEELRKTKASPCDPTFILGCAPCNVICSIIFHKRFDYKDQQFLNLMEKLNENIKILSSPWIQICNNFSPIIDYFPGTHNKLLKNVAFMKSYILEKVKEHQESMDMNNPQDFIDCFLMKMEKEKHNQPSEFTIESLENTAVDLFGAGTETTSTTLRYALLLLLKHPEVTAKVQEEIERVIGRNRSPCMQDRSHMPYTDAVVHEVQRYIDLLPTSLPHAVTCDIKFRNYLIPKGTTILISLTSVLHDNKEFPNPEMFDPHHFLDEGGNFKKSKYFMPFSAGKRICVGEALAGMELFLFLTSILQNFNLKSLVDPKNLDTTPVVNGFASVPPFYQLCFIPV

AUC(0-t) [3]: 1.24 µM·h | pIC50 (Cytochrome P450 2C9): 4.64 | fraction unbound [7]: 0.025 | fraction unbound [9]: 0.08 | pIC50 (Cytochrome P450 1A2): < 4.30 | AUC(0-t) [13]: 5.88 µM·h | Vd [14]: 17.1 L/kg | bioavailability [15]: 65% | pIC50 (MCF7 [16]): 7.49 | fraction unbound [17]: 0.026 | half-life [19]: 4.2 h | inhibition [20]: Dose-Dependent Effect | pIC50 (Cytochrome P450 2C19): 5.03 | Vd [21]: 11 L/kg | solubility [22]: > 2000 µg/mL | half-life [23]: 2.3 h
SMILES: CC(C)c1c2cc(-c3nc(Nc4ccc(N5CCNCC5)cn4)ncc3F)ccc2nn1C [CULMERCICLIB]
Activity (MDA-MB-436 [1]): 26.1% | Activity (MCF7 [2]): 5.91% | inhibition at 0.3 µM (MIA PaCa-2): 48% | Activity (MDA-MB-436 [4]): 46.59% | inhibition in vivo at 40 mg/kg [5]: 62% | inhibition at 0.3 µM (MV4-11): 71.1% | inhibition at 0.3 µM (SW-620): 55.1% | pIC50 [6]: 5.28 | Activity [8]: < 10% | Activity (MCF7 [10]): 68.93% | Activity (MDA-MB-436 [11]): 26.29% | inhibition in vivo at 5 mg/kg (MCF7 [12]): 68% | inhibition at 0.3 µM (CAL-27): 0.6% | inhibition in vivo at 0.3 µM (KG-1): 61.1% | inhibition at 0.3 µM (T47D): 36.6% | inhibition at 0.3 µM (NCI-H520): 24% | Activity [18]: Non-Toxic
